Data as given in ChEMBL document CHEMBL3734667 (Bioorg Med Chem, 2015).

System: not listed separately
Test: Cytotoxicity against human MT4 cells assessed as cell viability after 96 hrs by MTT assay
Type: cell-based
Details: not given
`Cc1ccc2nn(-c3ccc(OC(C)(C)C(=O)O)cc3)nc2c1` gave a CC50 at 96 h of over 100 µM.
With `Cc1cc2nn(C3CCCO3)nc2cc1C` (configuration not stated) the CC50 at 96 h was over 100 µM.
Compound `CN(C)c1cccc(C(=O)OCCCn2nc3ccccc3n2)c1` has a CC50 at 96 h of over 100 µM.
`COc1ccc(Cn2nc3cc(Cl)c(Cl)cc3n2)cc1` showed a CC50 at 96 h of over 100 µM.
`COc1ccc2nn(-c3ccc(OC(C)(C)C(=O)O)cc3)nc2c1` showed a CC50 at 96 h of over 100 µM.
In the case of `CC(CC(=O)O)n1nc2c(Cl)c(Cl)c(Cl)c(Cl)c2n1` (configuration not stated), the CC50 at 96 h is reported as over 100 µM.

System: not listed separately
Test: Cytotoxicity against MDBK cells assessed as cell viability after 48 to 96 hrs by MTT assay
Type: cell-based, Bos taurus
Details: cattle
For `Cc1ccc2nn(-c3ccc(OC(C)(C)C(=O)O)cc3)nc2c1`, the CC50 was over 100 µM.
Compound `Cc1cc2nn(C3CCCO3)nc2cc1C` (configuration not stated) has a CC50 of over 100 µM.
`CN(C)c1cccc(C(=O)OCCCn2nc3ccccc3n2)c1` showed a CC50 of over 100 µM.
Work on `COc1ccc(Cn2nc3cc(Cl)c(Cl)cc3n2)cc1` yielded a CC50 of over 100 µM.
`COc1ccc2nn(-c3ccc(OC(C)(C)C(=O)O)cc3)nc2c1` gave a CC50 of at least 100 µM.
`CC(CC(=O)O)n1nc2c(Cl)c(Cl)c(Cl)c(Cl)c2n1` (configuration not stated) showed a CC50 of 70 µM.

System: not listed separately
Test: Cytotoxicity against BHK cells assessed as cell viability after 48 to 96 hrs by MTT assay
Type: cell-based, Mesocricetus auratus
Details: hamster
For `Cc1ccc2nn(-c3ccc(OC(C)(C)C(=O)O)cc3)nc2c1`, the CC50 was over 100 µM.
Work on `Cc1cc2nn(C3CCCO3)nc2cc1C` (configuration not stated) yielded a CC50 of over 100 µM.
Work on `CN(C)c1cccc(C(=O)OCCCn2nc3ccccc3n2)c1` yielded a CC50 of over 100 µM.
`COc1ccc(Cn2nc3cc(Cl)c(Cl)cc3n2)cc1` showed a CC50 of over 100 µM.
With `COc1ccc2nn(-c3ccc(OC(C)(C)C(=O)O)cc3)nc2c1` the CC50 was over 100 µM.
`CC(CC(=O)O)n1nc2c(Cl)c(Cl)c(Cl)c(Cl)c2n1` (configuration not stated) gave a CC50 of 33 µM.

System: not listed separately
Test: Cytotoxicity against african green monkey Vero 76 cells assessed as cell viability after 48 to 96 hrs by crystal violet staining method
Type: cell-based
Details: chlorocebus sabaeus
With `Cc1ccc2nn(-c3ccc(OC(C)(C)C(=O)O)cc3)nc2c1` the CC50 was 95 µM.
Compound `Cc1cc2nn(C3CCCO3)nc2cc1C` (configuration not stated) has a CC50 of over 100 µM.
In the case of `CN(C)c1cccc(C(=O)OCCCn2nc3ccccc3n2)c1`, the CC50 is reported as over 100 µM.
`COc1ccc(Cn2nc3cc(Cl)c(Cl)cc3n2)cc1` gave a CC50 of over 100 µM.
`COc1ccc2nn(-c3ccc(OC(C)(C)C(=O)O)cc3)nc2c1` gave a CC50 of 90 µM.
`CC(CC(=O)O)n1nc2c(Cl)c(Cl)c(Cl)c(Cl)c2n1` (configuration not stated) gave a CC50 of 25 µM.

System: Bovine viral diarrhea virus 1
Test: Antiviral activity against BVDV infected in MDBK cells assessed as inhibition of virus-induced cytopathogenicity after 3 to 4 days by MTT assay
Type: functional, organism-based
Details: Bovine viral diarrhea virus isolates and strains
`Cc1ccc2nn(-c3ccc(OC(C)(C)C(=O)O)cc3)nc2c1` showed an EC50 of 90 µM.
Compound `Cc1cc2nn(C3CCCO3)nc2cc1C` (configuration not stated) has an EC50 of over 100 µM.
Compound `CN(C)c1cccc(C(=O)OCCCn2nc3ccccc3n2)c1` has an EC50 of over 100 µM.
`COc1ccc(Cn2nc3cc(Cl)c(Cl)cc3n2)cc1` gave an EC50 of over 100 µM.
`COc1ccc2nn(-c3ccc(OC(C)(C)C(=O)O)cc3)nc2c1` showed an EC50 of over 100 µM.
In the case of `CC(CC(=O)O)n1nc2c(Cl)c(Cl)c(Cl)c(Cl)c2n1` (configuration not stated), the EC50 is reported as 49 µM.

System: Yellow fever virus
Test: Antiviral activity against YFV infected in BHK-21 cells assessed as inhibition of virus-induced cytopathogenicity after 3 to 4 days by MTT assay
Type: functional, organism-based
Details: not given
`Cc1ccc2nn(-c3ccc(OC(C)(C)C(=O)O)cc3)nc2c1` showed an EC50 of over 100 µM.
In the case of `Cc1cc2nn(C3CCCO3)nc2cc1C` (configuration not stated), the EC50 is reported as over 100 µM.
In the case of `CN(C)c1cccc(C(=O)OCCCn2nc3ccccc3n2)c1`, the EC50 is reported as over 100 µM.
In the case of `COc1ccc(Cn2nc3cc(Cl)c(Cl)cc3n2)cc1`, the EC50 is reported as over 100 µM.
For `COc1ccc2nn(-c3ccc(OC(C)(C)C(=O)O)cc3)nc2c1`, the EC50 was over 100 µM.
Work on `CC(CC(=O)O)n1nc2c(Cl)c(Cl)c(Cl)c(Cl)c2n1` (configuration not stated) yielded an EC50 of over 100 µM.

System: Mammalian orthoreovirus 1
Test: Antiviral activity against Reo-1 virus infected in BHK-21 cells assessed as inhibition of virus-induced cytopathogenicity after 3 to 4 days by MTT assay
Type: functional, cell-based
Details: Mammalian orthoreovirus 1, BHK-21
With `Cc1cc2nn(C3CCCO3)nc2cc1C` (configuration not stated) the EC50 was over 100 µM.
In the case of `COc1ccc(Cn2nc3cc(Cl)c(Cl)cc3n2)cc1`, the EC50 is reported as over 100 µM.

System: Coxsackievirus B5
Test: Antiviral activity against human CVB5 infected in african green monkey Vero76 cells assessed as inhibition of virus-induced cytopathogenicity after 3 days by plaque reduction assay
Type: functional, organism-based
Details: Enterovirus B, Vero 76, 72 h
`Cc1ccc2nn(-c3ccc(OC(C)(C)C(=O)O)cc3)nc2c1` gave an EC50 of over 100 µM.
Work on `CN(C)c1cccc(C(=O)OCCCn2nc3ccccc3n2)c1` yielded an EC50 of 73 µM.
With `COc1ccc(Cn2nc3cc(Cl)c(Cl)cc3n2)cc1` the EC50 was over 100 µM.
Compound `COc1ccc2nn(-c3ccc(OC(C)(C)C(=O)O)cc3)nc2c1` has an EC50 of over 100 µM.
Compound `CC(CC(=O)O)n1nc2c(Cl)c(Cl)c(Cl)c(Cl)c2n1` (configuration not stated) has an EC50 of 25 µM.

System: Human orthopneumovirus
Test: Antiviral activity against human RSV infected in african green monkey Vero76 cells assessed as inhibition of virus-induced cytopathogenicity after 5 days by plaque reduction assay
Type: functional, organism-based
Details: human respiratory syncytial virus, Vero 76, 120 h
Compound `Cc1ccc2nn(-c3ccc(OC(C)(C)C(=O)O)cc3)nc2c1` has an EC50 of 22 µM.
For `CN(C)c1cccc(C(=O)OCCCn2nc3ccccc3n2)c1`, the EC50 was over 100 µM.
For `COc1ccc(Cn2nc3cc(Cl)c(Cl)cc3n2)cc1`, the EC50 was over 100 µM.
Compound `COc1ccc2nn(-c3ccc(OC(C)(C)C(=O)O)cc3)nc2c1` has an EC50 of 20 µM.
With `CC(CC(=O)O)n1nc2c(Cl)c(Cl)c(Cl)c(Cl)c2n1` (configuration not stated) the EC50 was 8 µM.

System: Poliovirus 1
Test: Antiviral activity against Human poliovirus 1 Sabin infected in african green monkey Vero76 cells assessed as inhibition of virus-induced cytopathogenicity by plaque reduction assay
Type: functional, organism-based
Details: Enterovirus C, Vero 76
With `Cc1ccc2nn(-c3ccc(OC(C)(C)C(=O)O)cc3)nc2c1` the EC50 was over 100 µM.
With `Cc1cc2nn(C3CCCO3)nc2cc1C` (configuration not stated) the EC50 was over 100 µM.
`COc1ccc(Cn2nc3cc(Cl)c(Cl)cc3n2)cc1` gave an EC50 of over 100 µM.
Compound `COc1ccc2nn(-c3ccc(OC(C)(C)C(=O)O)cc3)nc2c1` has an EC50 of over 100 µM.

System: not listed separately
Test: Selectivity index, ratio of CC50 for MDBK cells to EC50 for BVDV
Parameters: species or system Bovine viral diarrhea virus 1
Details: not given
With `Cc1ccc2nn(-c3ccc(OC(C)(C)C(=O)O)cc3)nc2c1` the “Ratio CC50/EC50” value was over 1.11.
With `CC(CC(=O)O)n1nc2c(Cl)c(Cl)c(Cl)c(Cl)c2n1` (configuration not stated) the “Ratio CC50/EC50” value was 1.43.

System: not listed separately
Test: Selectivity index, ratio of CC50 for african green monkey Vero76 cells to EC50 for human CVB5
Parameters: species or system Coxsackievirus B5, Vero 76
Details: not given
In the case of `CN(C)c1cccc(C(=O)OCCCn2nc3ccccc3n2)c1`, the “Ratio CC50/EC50” value is reported as over 1.37.

System: not listed separately
Test: Selectivity index, ratio of CC50 for african green monkey Vero76 cells to EC50 for human RSV
Parameters: species or system human respiratory syncytial virus, Vero 76
Details: not given
For `Cc1ccc2nn(-c3ccc(OC(C)(C)C(=O)O)cc3)nc2c1`, the “Ratio CC50/EC50” value was 4.32.
In the case of `COc1ccc2nn(-c3ccc(OC(C)(C)C(=O)O)cc3)nc2c1`, the “Ratio CC50/EC50” value is reported as 4.5.
With `CC(CC(=O)O)n1nc2c(Cl)c(Cl)c(Cl)c(Cl)c2n1` (configuration not stated) the “Ratio CC50/EC50” value was 3.12.

System: Human immunodeficiency virus 1
Test: Antiviral activity against HIV-1 infected in MT4 cells assessed as inhibition of virus-induced cytopathogenicity after 4 days by MTT assay
Type: functional, organism-based
Details: Human immunodeficiency virus 1, MT4, 96 h
Work on `Cc1ccc2nn(-c3ccc(OC(C)(C)C(=O)O)cc3)nc2c1` yielded an EC50 of over 100 µM.
`Cc1cc2nn(C3CCCO3)nc2cc1C` (configuration not stated) showed an EC50 of over 100 µM.
`CN(C)c1cccc(C(=O)OCCCn2nc3ccccc3n2)c1` gave an EC50 of over 100 µM.
Work on `COc1ccc(Cn2nc3cc(Cl)c(Cl)cc3n2)cc1` yielded an EC50 of over 100 µM.
Compound `COc1ccc2nn(-c3ccc(OC(C)(C)C(=O)O)cc3)nc2c1` has an EC50 of over 100 µM.
For `CC(CC(=O)O)n1nc2c(Cl)c(Cl)c(Cl)c(Cl)c2n1` (configuration not stated), the EC50 was over 100 µM.

System: Human alphaherpesvirus 1
Test: Antiviral activity against HSV1
Type: functional, organism-based
Details: not given
Work on `Cc1cc2nn(C3CCCO3)nc2cc1C` (configuration not stated) yielded an EC50 of over 100 µM.
With `COc1ccc(Cn2nc3cc(Cl)c(Cl)cc3n2)cc1` the EC50 was over 100 µM.

System: Vesicular stomatitis virus
Test: Antiviral activity against VSV
Type: functional, organism-based
Details: not given
In the case of `Cc1ccc2nn(-c3ccc(OC(C)(C)C(=O)O)cc3)nc2c1`, the EC50 is reported as over 100 µM.
`Cc1cc2nn(C3CCCO3)nc2cc1C` (configuration not stated) showed an EC50 of over 100 µM.
For `CN(C)c1cccc(C(=O)OCCCn2nc3ccccc3n2)c1`, the EC50 was over 100 µM.
With `COc1ccc(Cn2nc3cc(Cl)c(Cl)cc3n2)cc1` the EC50 was over 100 µM.
Work on `COc1ccc2nn(-c3ccc(OC(C)(C)C(=O)O)cc3)nc2c1` yielded an EC50 of over 100 µM.
Compound `CC(CC(=O)O)n1nc2c(Cl)c(Cl)c(Cl)c(Cl)c2n1` (configuration not stated) has an EC50 of over 100 µM.

System: Vaccinia virus
Test: Antiviral activity against Vaccinia virus
Type: functional, organism-based
Details: Orthopoxvirus vaccinia
For `Cc1ccc2nn(-c3ccc(OC(C)(C)C(=O)O)cc3)nc2c1`, the EC50 was over 100 µM.
Work on `CN(C)c1cccc(C(=O)OCCCn2nc3ccccc3n2)c1` yielded an EC50 of over 100 µM.
`COc1ccc(Cn2nc3cc(Cl)c(Cl)cc3n2)cc1` gave an EC50 of over 100 µM.
`COc1ccc2nn(-c3ccc(OC(C)(C)C(=O)O)cc3)nc2c1` gave an EC50 of over 100 µM.
With `CC(CC(=O)O)n1nc2c(Cl)c(Cl)c(Cl)c(Cl)c2n1` (configuration not stated) the EC50 was over 100 µM.
